Laboratory results reported in patent US20260015322A1, “DELIVERY OF THERAPEUTIC ALKALOID COMPOUNDS” (priority 2022, published 2026).

Tests used:
Assay type in all cases: in vitro ADME
[1] = Plasma Stability Assay (Example A3), human plasma; conditions: 10 μM, 37° C., prodrug remaining
Text: (§1) The data is represented in the table below.

[2] = Metabolic Stability in Human Hepatocytes; conditions: cryopreserved human hepatocytes, 5×10^5 viable cells/mL, 37° C.
Procedure: A 2.5 uL aliquot of 100 μM test compound was incubated with 247.5 uL of cryopreserved hepatocytes suspended in serum-free incubation medium at 5×10^5 viable cells/mL. The mixture was incubated at 37° C. and shaken at 500 rpm for the designated time points (0.5, 15, 30, 60, 90, or 120 min). At each time point, 25 μL aliquot of incubation mixture was transferred to 125 μL of cold acetonitrile containing internal standard, followed by centrifugation for 30 min at 3,220 g. 100 μL of supernatant was mixed with 100 μL of distilled water for analysis by LC-MS/MS. Peak areas were determined from extracted ion chromatograms and in vitro half-life (t1/2) was determined from the concentration vs time regression slope, in vitro t1/2=0.693/k. Conversion of the in vitro t1/2 (in min) into the in vitro intrinsic clearance (in vitro CLint, in μL/min/10^6 cells) is done using: in vitro CLint=kV/N.

[3] = Plasma Stability Assay (Example A3), rat plasma; conditions: 10 μM, 37° C., prodrug remaining
Text: as §1

| Structure (SMILES) | Prodrug (%) ([1]; 0 min) | Prodrug (%) ([1]; 10 min) | Prodrug (%) ([1]; 30 min) | Prodrug (%) ([1]; 60 min) | Prodrug (%) ([1]; 120 min) | Prodrug (%) ([1]; 240 min) | t1/2 [2] | Prodrug (%) ([3]; 0 min) | Prodrug (%) ([3]; 10 min) | Prodrug (%) ([3]; 30 min) | Prodrug (%) ([3]; 60 min) | Prodrug (%) ([3]; 120 min) | Prodrug (%) ([3]; 240 min) |
| --- | --- | --- | --- | --- | --- | --- | --- | --- | --- | --- | --- | --- | --- |
| COc1ccc([C@@]23CCC(OP4(=O)OC(C)CC(C)O4)=C[C@@H]2N(C)CC3)cc1OC (stereo partly drawn) [Compound 423, 2-(((3aS,7aS)-3a-(3,4-dimethoxyphenyl)-1-methyl-2,3,3a,4,5,7a-hexahydro-1H-indol-6-yl)oxy)-4,6-dimethyl-1,3,2-dioxaphosphinane 2-oxide] | 100.00% | >99% | >99% | 98.77% | 97.80% | 89.67% | 57 min | 100.00% | >99% | >99% | 91.05% | 83.29% | 67.32% |
| COc1ccc([C@@]23CCC(OP(=O)(O)OCOC(=O)OC(C)C)=C[C@@H]2N(C)CC3)cc1OC [Compound 410, [[(3aS,7aS)-3a-(3,4-dimethoxyphenyl)-1-methyl-3,4,5,7a-tetrahydro-2H-indol-6-yl]oxy-hydroxy-phosphoryl]oxymethyl isopropyl carbonate] | 100.0% | 96.3% | 98.8% | 92.7% | 88.2% | 75.5% | – | 100.0% | 63.0% | 25.4% | 7.1% | 0.52% | 0.01% |
| COc1ccc([C@@]23CCC(OP(=O)(O)OCOC(=O)C(C)(C)C)=C[C@@H]2N(C)CC3)cc1OC [Compound 409, [[(3aS,7aS)-3a-(3,4-dimethoxyphenyl)-1-methyl-3,4,5,7a-tetrahydro-2H-indol-6-yl]oxy-hydroxy-phosphoryl]oxymethyl 2,2-dimethylpropanoate] | 100.0% | >99% | 95.2% | 93.0% | 87.3% | 75.8% | – | 100.0% | 89.9% | 81.2% | 71.0% | 44.5% | 22.7% |
| COc1ccc([C@@]23CCC(OP4(=O)OCCCO4)=C[C@@H]2N(C)CC3)cc1OC [Compound 422, 2-(((3aS,7aS)-3a-(3,4-dimethoxyphenyl)-1-methyl-2,3,3a,4,5,7a-hexahydro-1H-indol-6-yl)oxy)-1,3,2-dioxaphosphinane 2-oxide] | 100.0% | 89.4% | 73.1% | 62.4% | 39.2% | 19.6% | 366 min | 100.0% | >99% | >99% | >99% | 91.0% | 76.8% |
